For one test, the system named is FADD−/− Jurkat cells. Nature of the test: Necroptosis inhibition assay, TNF-α-induced necroptosis (CellTiter-Glo 2.0). The test is classed as cell-based, human. The conditions noted are these: TNF-α 15 ng/mL; for Necroptosis inhibition assay (Rescue %) 1 μM: compound 1 μM; for Necroptosis inhibition assay (Rescue %) 10 μM: compound 10 μM. The essentials:
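FADD−/− Jurkat cells preincubated 30 min at room temperature with compound at 0.1, 1 and 10 μM final, then stimulated with TNF-α (15 ng/mL final) for 20–24 h at 37 °C, 5% CO2. Viability read as ATP luminescence; cytotoxicity and necroptosis inhibition rate calculated from luminescence values.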
(ATP-based viability assays read luminescence as a measure of living cells.)

Test [1] deals with T1, MLKL (Homo sapiens, UniProt Q8NB16).
T1 sequence (Q8NB16 1-471): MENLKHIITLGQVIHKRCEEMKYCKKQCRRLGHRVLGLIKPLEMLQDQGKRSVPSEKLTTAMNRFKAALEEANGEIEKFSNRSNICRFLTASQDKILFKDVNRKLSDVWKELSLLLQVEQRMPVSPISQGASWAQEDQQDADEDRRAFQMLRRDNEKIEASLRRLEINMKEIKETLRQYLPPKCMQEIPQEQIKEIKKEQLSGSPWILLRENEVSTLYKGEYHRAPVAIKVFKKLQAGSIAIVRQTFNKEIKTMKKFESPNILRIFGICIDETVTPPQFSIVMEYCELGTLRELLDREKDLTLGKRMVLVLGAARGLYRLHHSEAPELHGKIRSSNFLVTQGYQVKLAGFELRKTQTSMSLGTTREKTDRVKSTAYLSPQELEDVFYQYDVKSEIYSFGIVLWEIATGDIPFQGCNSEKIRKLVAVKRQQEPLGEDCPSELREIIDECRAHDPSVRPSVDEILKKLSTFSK
In words: MLKL degradation assay in HepG2 cell line (western blot). The test is classed as cell-based. Set-up: endogenous in cells; host or cells: HepG2 or HaCaT. As to conditions: cell line not given; for Degradation assay (Degradation %) 1 μM: compound 1 μM; for Degradation assay (Degradation %) 10 μM: compound 10 μM. The essentials:
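HepG2 cells were treated 20-24 h at 37 °C with compound at 1 or 10 μM final. RIPA lysates were normalized by BCA, and 10-15 μg protein per lane was resolved by SDS-PAGE. MLKL was detected by western blot with chemiluminescence.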
(In general: In western blotting, separated proteins are transferred to a membrane and probed.)

Test [2] deals with T1, MLKL. Nature of the test: Measurement of binding affinity with MLKL receptor (competitive binding assay, Kd). Set-up: made in house; host or cells: HEK 293 cell line (T7 phage in E. coli BL21-derived host is also described). The method, boiled down:
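qPCR of MLKL eluted from liganded beads served as the read-out, from which Kd was derived. The protein was made in HEK 293 cells with a DNA tag, and test compounds competed with the bead-bound ligand at 0.9% final DMSO.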

On to `Nc1ncc(-c2cnn(C3CCN(CCOC4CCN(C(=O)CCc5cccc6c5CN(C5CCC(=O)NC5=O)C6=O)CC4)CC3)c2)nc1C(=O)O[C@@H](C(=O)Nc1ccc(F)cc1)c1ccccc1` (stereo partly drawn) [TDH-387, (R)-2-((4-fluorophenyl)amino)-2-oxo-1-phenylethyl 3-amino-6-(1-(1-(2-((1-(3-(2-(2,6-dioxopiperidin-3-yl)-1-oxoisoindolin-4-yl)propanoyl)piperidin-4-yl)oxy)ethyl)piperidin-4-yl)-1H-pyrazol-4-yl)pyrazine-2-carboxylate], for which, in the test on FADD−/− Jurkat cells, the “Necroptosis inhibition assay (Rescue %) 1 μM” value stood at 37.82% and the “Necroptosis inhibition assay (Rescue %) 10 μM” value is reported as 25.00%. At MLKL [1], the “Degradation assay (Degradation %) 1 μM” value was found to be 85.77% and the “Degradation assay (Degradation %) 10 μM” value stood at 66.9%. Further, the Kd (as a rule, the concentration at which binding is half-saturated) at MLKL [2] was 1.6 nM.

As to `COc1ccc(C(=O)N2CCC(CCN3CCC(CN4CCC(n5cc(-c6cnc(N)c(C(=O)O[C@@H](C(=O)Nc7ccc(F)cc7)c7ccccc7)n6)cn5)CC4)CC3)CC2)cc1N1CCC(=O)NC1=O` [TDH-501, (R)-2-((4-fluorophenyl)amino)-2-oxo-1-phenylethyl 3-amino-6-(1-(1-((1-(2-(1-(3-(2,4-dioxotetrahydropyrimidin-1(2H)-yl)-4-methoxybenzoyl)piperidin-4-yl)ethyl)piperidin-4-yl)methyl)piperidin-4-yl)-1H-pyrazol-4-yl)pyrazine-2-carboxylate], in the test on FADD−/− Jurkat cells (FADD−/− Jurkat cells), the “Necroptosis inhibition assay (Rescue %) 1 μM” value was found to be 92.23% and the “Necroptosis inhibition assay (Rescue %) 10 μM” value was determined as 71.17%. In addition, on MLKL [1], the “Degradation assay (Degradation %) 1 μM” value is listed as 93.47% and the “Degradation assay (Degradation %) 10 μM” value came to 96.40%. At MLKL [2], this compound registered a Kd of 0.95 nM.

Turning to `Nc1ncc(-c2cnn(C3CCN(CCOC4CCN(c5cccc6c5C(=O)N(C5CCC(=O)NC5=O)C6=O)CC4)CC3)c2)nc1C(=O)OC(C(=O)Nc1ccc(F)cc1)c1ccccc1` (stereo not shown) [TDH-253, 2-((4-fluorophenyl)amino)-2-oxo-1-phenylethyl 3-amino-6-(1-(1-(2-((1-(2-(2,6-dioxopiperidin-3-yl)-1,3-dioxoisoindolin-4-yl)piperidin-4-yl)oxy)ethyl)piperidin-4-yl)-1H-pyrazol-4-yl)pyrazine-2-carboxylate], in the test with FADD−/− Jurkat cells, the “Necroptosis inhibition assay (Rescue %) 1 μM” value turned out to be 65.01% and the “Necroptosis inhibition assay (Rescue %) 10 μM” value was found to be 36.1%. In addition, at MLKL [1], the “Degradation assay (Degradation %) 1 μM” value is given as 80.74% and the “Degradation assay (Degradation %) 10 μM” value is reported as 59.15%. This compound also showed a Kd at MLKL [2] of 10 nM.

Take `COc1ccc(C(=O)N2CCC(CCN3CCC(n4cc(-c5cnc(N)c(C(=O)O[C@@H](C(=O)Nc6ccc(F)cc6)c6ccccc6)n5)cn4)CC3)CC2)cc1N1CCC(=O)NC1=O` [TDH-446, (R)-2-((4-fluorophenyl)amino)-2-oxo-1-phenylethyl 3-amino-6-(1-(1-(2-(1-(3-(2,4-dioxotetrahydropyrimidin-1(2H)-yl)-4-methoxybenzoyl)piperidin-4-yl)ethyl)piperidin-4-yl)-1H-pyrazol-4-yl)pyrazine-2-carboxylate]: in the test on FADD−/− Jurkat cells (FADD−/− Jurkat cells), the “Necroptosis inhibition assay (Rescue %) 1 μM” value is on record as 34.93% and the “Necroptosis inhibition assay (Rescue %) 10 μM” value stood at 8.47%. In addition, at MLKL [1], the “Degradation assay (Degradation %) 1 μM” value was 57.4% and the “Degradation assay (Degradation %) 10 μM” value amounted to 17.94%. Also, binding on MLKL [2] was characterised by a dissociation constant (Kd) of 0.22 nM.

On to `Nc1ncc(-c2cnn(C3CCN(CCOC4CCN(C(=O)CNc5ccc6c(c5)C(=O)N(C5CCC(=O)NC5=O)C6=O)CC4)CC3)c2)nc1C(=O)OC(C(=O)Nc1ccc(F)cc1)c1ccccc1` (stereo not shown) [TDH-250, 2-((4-fluorophenyl)amino)-2-oxo-1-phenylethyl 3-amino-6-(1-(1-(2-((1-((2-(2,6-dioxopiperidin-3-yl)-1,3-dioxoisoindolin-5-yl)glycyl)piperidin-4-yl)oxy)ethyl)piperidin-4-yl)-1H-pyrazol-4-yl)pyrazine-2-carboxylate], for which, in the test with FADD−/− Jurkat cells, the “Necroptosis inhibition assay (Rescue %) 1 μM” value is 69.46% and the “Necroptosis inhibition assay (Rescue %) 10 μM” value came to 46.6%. At MLKL [1], the “Degradation assay (Degradation %) 1 μM” value was determined as 78.33% and the “Degradation assay (Degradation %) 10 μM” value is on record as 71.54%. The compound further displayed a Kd at MLKL [2] of 4.9 nM.

For `Nc1ncc(-c2cnn(C3CCN(C(=O)CCC4CCN(C(=O)COc5ccc6c(c5)C(=O)N(C5CCC(=O)NC5=O)C6=O)CC4)CC3)c2)nc1C(=O)O[C@@H](C(=O)Nc1ccc(F)cc1)c1ccccc1` (stereo partly drawn) [TDH-416, (R)-2-((4-fluorophenyl)amino)-2-oxo-1-phenylethyl 3-amino-6-(1-(1-(3-(1-(2-((2-(2,6-dioxopiperidin-3-yl)-1,3-dioxoisoindolin-5-yl)oxy)acetyl)piperidin-4-yl)propanoyl)piperidin-4-yl)-1H-pyrazol-4-yl)pyrazine-2-carboxylate], in the test with FADD−/− Jurkat cells (FADD−/− Jurkat cells), the “Necroptosis inhibition assay (Rescue %) 1 μM” value is given as 52.88% and the “Necroptosis inhibition assay (Rescue %) 10 μM” value was determined as 43.06%. Further, on MLKL [1], the “Degradation assay (Degradation %) 1 μM” value is recorded as 93.24% and the “Degradation assay (Degradation %) 10 μM” value was 93.04%. For the same compound, the Kd on MLKL [2] was 2.4 nM.

As for `Nc1ncc(-c2cnn(C3CCN(CCC4CCN(C(=O)COc5ccc6nnn(C7CCC(=O)NC7=O)c(=O)c6c5)CC4)CC3)c2)nc1C(=O)O[C@@H](C(=O)Nc1ccc(F)cc1)c1ccccc1` (stereo partly drawn) [TDH-330, (R)-2-((4-fluorophenyl)amino)-2-oxo-1-phenylethyl 3-amino-6-(1-(1-(2-(1-(2-((3-(2,6-dioxopiperidin-3-yl)-4-oxo-3,4-dihydrobenzo[d][1,2,3]triazin-6-yl)oxy)acetyl)piperidin-4-yl)ethyl)piperidin-4-yl)-1H-pyrazol-4-yl)pyrazine-2-carboxylate], the “Necroptosis inhibition assay (Rescue %) 1.1 μM” value in the test with FADD−/− Jurkat cells (compound 1.1 µM) was 54.05 (1.1µM) %. Also, in the test on FADD−/− Jurkat cells, the “Necroptosis inhibition assay (Rescue %) 10 μM” value stood at 51.95%. In addition, on MLKL [1], the “Degradation assay (Degradation %) 1 μM” value turned out to be 59.64% and the “Degradation assay (Degradation %) 10 μM” value came out at 49.16%. The same compound showed a Kd at MLKL [2] of 0.65 nM.

With `Nc1ncc(-c2cnn(C3CCN(C(=O)COCCOCCNC(=O)CNc4cccc5c4C(=O)N(C4CCC(=O)NC4=O)C5=O)CC3)c2)nc1C(=O)O[C@@H](C(=O)Nc1ccc(F)cc1)c1ccccc1` (stereo partly drawn) [TDH-190, (R)-2-((4-fluorophenyl)amino)-2-oxo-1-phenylethyl 3-amino-6-(1-(1-(2-(2-(2-(2-((2-(2,6-dioxopiperidin-3-yl)-1,3-dioxoisoindolin-4-yl)amino)acetamido)ethoxy)ethoxy)acetyl)piperidin-4-yl)-1H-pyrazol-4-yl)pyrazine-2-carboxylate], in the test on FADD−/− Jurkat cells, the “Necroptosis inhibition assay (Rescue %) 1 μM” value worked out at 39.55% and the “Necroptosis inhibition assay (Rescue %) 10 μM” value is reported as 43.59%. The “Degradation assay (Degradation %) 10 μM” value on MLKL [1] was found to be 4.57%. In addition, binding at MLKL [2] was put at a Kd of 13 nM.

Turning to `Nc1ncc(-c2cnn(C3CCN(CCOCCNC(=O)C4CCN(c5cccc6c5C(=O)N(C5CCC(=O)NC5=O)C6=O)CC4)CC3)c2)nc1C(=O)O[C@@H](C(=O)Nc1ccc(F)cc1)c1ccccc1` (stereo partly drawn) [TDH-128, (R)-2-((4-fluorophenyl)amino)-2-oxo-1-phenylethyl 3-amino-6-(1-(1-(2-(2-(1-(2-(2,6-dioxopiperidin-3-yl)-1,3-dioxoisoindolin-4-yl)piperidine-4-carboxamido)ethoxy)ethyl)piperidin-4-yl)-1H-pyrazol-4-yl)pyrazine-2-carboxylate], in the test on FADD−/− Jurkat cells, the “Necroptosis inhibition assay (Rescue %) 1 μM” value is 26.22% and the “Necroptosis inhibition assay (Rescue %) 10 μM” value is 56.56%. Also, on MLKL [1], the “Degradation assay (Degradation %) 1 μM” value was 11% and the “Degradation assay (Degradation %) 10 μM” value is 68.52%. Further, on MLKL [2], the Kd stood at 14 nM.

With `Nc1ncc(-c2cnn(C3CCN(C[C@H]4CC[C@H](CNc5ccc6c(c5)C(=O)N(C5CCC(=O)NC5=O)C6=O)CC4)CC3)c2)nc1C(=O)O[C@@H](C(=O)Nc1ccc(F)cc1)c1ccccc1` (stereo partly drawn) [TDH-352, (R)-2-((4-fluorophenyl)amino)-2-oxo-1-phenylethyl 3-amino-6-(1-(1-(((1r,4r)-4-(((2-(2,6-dioxopiperidin-3-yl)-1,3-dioxoisoindolin-5-yl)amino)methyl)cyclohexyl)methyl)piperidin-4-yl)-1H-pyrazol-4-yl)pyrazine-2-carboxylate], in the test on FADD−/− Jurkat cells, the “Necroptosis inhibition assay (Rescue %) 1 μM” value is 11.36% and the “Necroptosis inhibition assay (Rescue %) 10 μM” value is recorded as 5.3%. On MLKL [1], the “Degradation assay (Degradation %) 1 μM” value was 50.93% and the “Degradation assay (Degradation %) 10 μM” value was determined as 42.16%. Besides, the Kd at MLKL [2] came to 5.4 nM.

(Values after patent publication US20240252488A1 (KOREA RESEARCH INSTITUTE OF CHEMICAL TECHNOLOGY, priority 2020, published 2024).)
